# Results taken from article PMC4195943, “A novel small-molecule MRCK inhibitor blocks cancer cell invasion” (Cell Communication and Signaling : CCS, 2014).
# Read-outs that look alike come from different tables or passages of the source.
# Legend:
# Type in all cases: cell-based, human
# SCC12 cells [1] = assay: Alamar Blue cell viability, SCC12 cells; settings: 2 μM, 24 hours
# Protocol: (§1) All results are shown as mean ± standard error of n = 3 independent replicates. […] Readings were compared to the Alamar Blue metabolism in DMSO treated cells that were used as the viability standard of 100% for each replicate experiment. […] (F) Number of invading cells was determined in 5 random fields for each condition for each separate replicate experiment. All results are shown as mean ± standard error of n ≥ 3 independent replicates.
# (§2) MDA MB 231 or SCC12 cells were plated in a 96 well plate and cultured for 24 hours. […] Pictures were taken every 3 hours and confluence was measured using the IncuCyte analysis software. AlamarBlue (Invitrogen, DAL 1025) was added to the medium and the cells were cultured for an additional day. Absorbances at 570 nm and at 600 nm were measured to assess cell health.
# MDA MB 231 cells = assay: Alamar Blue cell viability, MDA-MB-231 cells; settings: 24 hours
# Protocol: (A) MDA-MB-231 human breast cancer cells were plated in 96 well plates, then 24 hours later a ~800 μm scratch wound was created. […] All results are shown as mean ± standard error of n ≥ 4 independent replicates. […] Readings were compared to the Alamar Blue metabolism in DMSO treated cells that were used as the viability standard of 100% for each replicate experiment. All results are shown as mean ± standard error of 3 independent replicates.
# MDA-MB-231 cells were plated at 30,000 cells per well in Image Lock 96 well plates (Essen BioScience) in 100 μL complete DMEM medium and after allowing cells to settle for 20 min were incubated overnight at 37°C in 5% CO2 in a humidified incubator. Matrigel (BD Biosciences) was thawed overnight at 4°C, diluted 1:1 with PBS and 100 μL pipetted over cells that had been scratched with the WoundMaker tool (Essen BioScience). Plates were incubated for 1 h, then appropriately diluted drugs added in 100 μL media to achieve final concentrations. Plates were scanned with an Incucyte Zoom (Essen BioSciences) according to manufacturer’s instructions at 3 hour intervals. Cell viability was determined with AlamarBlue (Invitrogen, DAL 1025), which was added to the medium and cells cultured for 6 hours. Absorbances at 570 nm and at 600 nm were measured to assess metabolic activity.
# as §2
# SCC12 cells [2] = assay: Cell confluence by Incucyte image analysis, SCC12 cells; settings: 2 μM, 21 hours
# Protocol: as §1, §2
# [3] = system: MLC phosphorylation in MDA-MB-231 cells; assay: MLC phosphorylation in parental MDA-MB-231 breast cancer cells (quantitative western blot); settings: for EC50: parental MDA-MB-231, 30 minutes treatment, read-out: EC50, inhibition of MLC phosphorylation; for pMLC on western blots at higher concentrations: parental MDA-MB-231, higher concentrations
# Protocol: All results are shown as mean ± standard error of n = 3 independent replicates. […] After fixation and permeabilization, cells were stained with phalloidin to visualize filamentous actin structures and pMLC (S19) primary antibody as indicated.
# Cell lysates were prepared as described previously. For pMLC western blots, cells were lysed in a 1% (w/v) SDS, 50 mM Tris pH 7.5 buffer and lysates were passed through QIAshredder columns (Qiagen, 79654). Alternatively, for pMLC western blots lysates were prepared in lysis buffer with 50 mM Tris (pH7.5), 0.5% (w/v) SDS, supplemented with Complete Protease and PhosSTOP inhibitors (Roche). Whole cell lysates were separated by SDS-PAGE, transferred to Protran nitrocellulose membranes (Whatman), probed with primary antibodies and appropriate IR dye-conjugated secondary antibodies. Blots were visualized using a Licor Odyssey according to manufacturer’s instructions. Antibodies used in this study were: MRCKα (611584) from BD Transduction Laboratories; MRCKβ (H00009578-A01) from Abnova; MRCKα/β (MANDM1 6G8) from Glenn Morris (Centre for Inherited Neuromuscular Disease, Oswestry UK); MRCL3/MRLC2/MYL9 (sc-28329) from Santa Cruz Biotechnology; pMLC2 Thr18/Ser19 (3674) from Cell Signaling Technology. ROCK1/2 (07–1458) from Millipore; TetR (Clone 9G9; 631132) from Clontech; α-Tubulin (TU-02; sc-8035) from Santa Cruz Biotechnology; ERK2 from Chris Marshall (Institute of Cancer Research, London UK). Secondary antibodies used were: goat anti-mouse IgG Dylight 800 from Thermo Scientific (35521), goat anti rabbit IgG AlexaFluor 680 from Invitrogen (A12076), goat anti-rabbit IgG IR Dye 800 CW (926–32211) and goat anti-mouse IgG IR Dye 680 (926–68020) were from LI-COR Biosciences.
"EC50 (MDA MB 231 cells; Homo sapiens, MDA-MB-231, read-out: EC50, cell viability (Alamar Blue metabolism))",Structure (SMILES),cell viability (Alamar Blue metabolism) versus DMSO (SCC12 cells [1]),effect on cell viability (MDA MB 231 cells; 1 μM),cell confluence (SCC12 cells [2]),"EC50 ([3]; Homo sapiens, 0.5 h)",pMLC on western blots at higher concentrations [3],effect on cell viability (MDA MB 231 cells; 10 μM),EC50 [3]
> 10000 nM,"O=C(Nc1cn[nH]c1-c1ccccn1)c1nn(C2CCNCC2)cc1Cl [BDP5290, 4-chloro-1-(4-piperidyl)-N-[5-(2-pyridyl)-1H-pyrazol-4-yl]pyrazole-3-carboxamide]",did not differ from DMSO standard values,no effect on cell viability,did not significantly differ between treatments,316 nM,reduced pMLC to undetectable levels,–,–
–,"C[C@@H](N)[C@H]1CC[C@H](C(=O)Nc2ccncc2)CC1 [Y27632, reference compound]",did not differ from DMSO standard values,–,did not significantly differ between treatments,–,unable to completely inhibit pMLC,no effect on cell viability,407 nM
